Where two headings read alike, the source gives them in different places.
Molecular target: T1, human CB2R (Homo sapiens, UniProt P34972)
T1 construct: host or cells: CHO cells
Test: CB2R mediated modulation of cAMP synthesis
Assay type: cell-based
Conditions: for agonistic activity: found through the use of the above described assays
Description: B. CB2R Mediated Modulation of cAMP Synthesis:
CHO cells expressing human CB2R (Euroscreen) were plated at a density of 5000 cells per well in 384 well plates and incubated overnight at 37° C. After removing the media, the cells were treated with test compounds diluted in stimulation buffer containing 1 mM IBMX, 0.25% BSA and 10 uM Forskolin. The assay was incubated for 30 minutes at 37° C. Cells were lysed and the cAMP concentration was measured using DiscoverX-XS cAMP kit, following the manufacturer's protocol. In this setting, agonists will decrease forskolin induced production of cAMP while inverse agonists will further increase forskolin induced production of cAMP. EC50 of agonists were calculated as follows. The maximal amount of cAMP produced by forskolin compared to the level of cAMP inhibited by 1 uM CP55940 is defined as 100%. The EC50 value of each test compound was determined as the concentration at which 50% of the forskolin-stimulated cAMP synthesis was inhibited. Data was analyzed using a four-parameter logistic model. (Model 205 of XLfit 4.0).

T1 sequence (P34972 whole entry): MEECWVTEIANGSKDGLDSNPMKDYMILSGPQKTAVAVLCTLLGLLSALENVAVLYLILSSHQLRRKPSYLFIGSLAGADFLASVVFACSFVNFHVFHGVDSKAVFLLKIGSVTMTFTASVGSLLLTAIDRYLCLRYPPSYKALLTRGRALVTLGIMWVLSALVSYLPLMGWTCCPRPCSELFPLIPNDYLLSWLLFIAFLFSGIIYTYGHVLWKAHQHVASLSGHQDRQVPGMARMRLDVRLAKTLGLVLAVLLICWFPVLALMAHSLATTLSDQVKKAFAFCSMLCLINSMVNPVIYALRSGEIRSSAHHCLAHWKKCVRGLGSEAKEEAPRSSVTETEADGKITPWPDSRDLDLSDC

Row | SMILES | agonistic activity | EC50 [nM] | EC50 (CHO cells expressing human CB2R, inhibition of forskolin-stimulated cAMP synthesis, compounds having agonist activity, read-out: CB2 EC50) [nM]
1 | CC(C)(C)c1cc(NC(=O)C(C)(C)S(=O)(=O)CC(F)(F)F)no1 [N-(5-tert-Butyl-isoxazol-3-yl)-2-methyl-2-(2,2,2-trifluoro-ethanesulfonyl)-propionamide] | agonistic activity | – | –
2 | CC(C)(C)C(=O)CS(=O)(=O)C(C)(C)C(=O)Nc1cc(C(C)(C)C)on1 [N-(5-tert-Butyl-isoxazol-3-yl)-2-(3,3-dimethyl-2-oxo-butane-1-sulfonyl)-2-methyl-propionamide] | agonistic activity | 39.8 | –
3 | CC(C)(C)C(=O)CS(=O)(=O)C(C)(C)C(=O)Nc1ccc(C(F)(F)F)cn1 [2-(3,3-Dimethyl-2-oxo-butane-1-sulfonyl)-2-methyl-N-(5-trifluoromethyl-pyridin-2-yl)-propionamide] | agonistic activity | 41.5 | –
4 | CCCS(=O)(=O)C(C)(C)C(=O)Nc1ccc(C(C)(C)C)cc1 [N-(4-tert-Butyl-phenyl)-2-methyl-2-(propane-1-sulfonyl)-propionamide] | agonistic activity | 12.3 | –
5 | CCCS(=O)(=O)C(C)(C)C(=O)Nc1cc(C(C)(C)C)on1 [N-(5-tert-Butyl-isoxazol-3-yl)-2-methyl-2-(propane-1-sulfonyl)-propionamide] | agonistic activity | 61.9 | –
6 | CC(C)(C(=O)Nc1ccc(C(F)(F)F)cn1)S(=O)(=O)CC1CC1 [2-Cyclopropylmethanesulfonyl-2-methyl-N-(5-trifluoromethyl-pyridin-2-yl)-propionamide] | agonistic activity | – | –
7 | CC(C)CCS(=O)(=O)C(C)(C)C(=O)Nc1cc(C(C)(C)C)on1 [N-(5-tert-Butyl-isoxazol-3-yl)-2-methyl-2-(3-methyl-butane-1-sulfonyl)-propionamide] | agonistic activity | 0.2 | –
8 | CCCS(=O)(=O)C(C)(C)C(=O)Nc1cc(C(C)(C)C)no1 [N-(3-tert-Butyl-isoxazol-5-yl)-2-methyl-2-(propane-1-sulfonyl)-propionamide] | agonistic activity | 89.7 | –
9 | CC(C)S(=O)(=O)C(C)(C)C(=O)Nc1nc(C(C)(C)C)cs1 [N-(4-tert-Butyl-thiazol-2-yl)-2-methyl-2-(propane-2-sulfonyl)-propionamide] | agonistic activity | – | –
10 | CC(C)c1cc(NC(=O)C(C)(C)S(=O)(=O)CC2CCOCC2)on1 [N-(3-Isopropyl-isoxazol-5-yl)-2-methyl-2-(tetrahydro-pyran-4-ylmethanesulfonyl)-propionamide] | agonistic activity | – | –
11 | CCCS(=O)(=O)C(C)(C)C(=O)Nc1nc(-c2ccccc2)c(C)s1 [2-Methyl-N-(5-methyl-4-phenyl-thiazol-2-yl)-2-(propane-1-sulfonyl)-propionamide] | agonistic activity | 52.2 | –
12 | CC(C)C(C(=O)Nc1nc(C(C)(C)C)cs1)S(=O)(=O)C(C)C (centres unmarked) [N-(4-tert-Butyl-thiazol-2-yl)-3-methyl-2-(propane-2-sulfonyl)-butyramide] | agonistic activity | – | –
13 | CC(C)S(=O)(=O)C(C)(C)C(=O)Nc1cc(-c2ccccc2)nn1C [2-Methyl-N-(2-methyl-5-phenyl-2H-pyrazol-3-yl)-2-(propane-2-sulfonyl)-propionamide] | agonistic activity | – | –
14 | CC(C)(C)c1cc(NC(=O)C(C)(C)S(=O)(=O)CC2CCNCC2)no1 [N-(5-tert-Butyl-isoxazol-3-yl)-2-methyl-2-(piperidin-4-ylmethanesulfonyl)-propionamide] | agonistic activity | – | –
15 | Cc1nc(NC(=O)C(C)(C)S(=O)(=O)CC2CCOCC2)sc1C(C)(C)C [N-(5-tert-Butyl-4-methyl-thiazol-2-yl)-2-methyl-2-(tetrahydro-pyran-4-ylmethanesulfonyl)-propionamide] | agonistic activity | 0.2 | –
16 | CCC(C)S(=O)(=O)C(C)(C)C(=O)Nc1cc(C(C)(C)C)on1 (centres unmarked) [2-(Butane-2-sulfonyl)-N-(5-tert-butyl-isoxazol-3-yl)-2-methyl-propionamide] | agonistic activity | – | 18.7
17 | CC(C)(C)c1cc(NC(=O)C(C)(C)S(=O)(=O)CC2CCOCC2)on1 [N-(3-tert-Butyl-isoxazol-5-yl)-2-methyl-2-(tetrahydro-pyran-4-ylmethanesulfonyl)-propionamide] | agonistic activity | 4 | –
18 | CC(C)(C(=O)Nc1nsc(-c2ccccc2)n1)S(=O)(=O)CC1CCOCC1 [2-Methyl-N-(5-phenyl-[1,2,4]thiadiazol-3-yl)-2-(tetrahydro-pyran-4-ylmethanesulfonyl)-propionamide] | agonistic activity | 17.6 | –
19 | CC(C)(C)c1cc(NC(=O)C(C)(C)S(=O)(=O)CC2CCCO2)no1 (centres unmarked) [N-(5-tert-Butyl-isoxazol-3-yl)-2-methyl-2-(tetrahydro-furan-2-ylmethanesulfonyl)-propionamide] | agonistic activity | 70.5 | –
20 | CC(C)(C(=O)Nc1cc(C(F)(F)F)ccn1)S(=O)(=O)C1CCCC1 [2-Cyclopentanesulfonyl-2-methyl-N-(4-trifluoromethyl-pyridin-2-yl)-propionamide] | agonistic activity | – | –
21 | CC(C)(C(=O)Nc1ccc(C(F)(F)F)cn1)S(=O)(=O)C1CCCCCC1 [2-Cycloheptanesulfonyl-2-methyl-N-(5-trifluoromethyl-pyridin-2-yl)-propionamide] | agonistic activity | 7.1 | –
22 | CC(C)(C)c1cc(NC(=O)C(C)(C)S(=O)(=O)C2CCCCCC2)no1 [N-(5-tert-Butyl-isoxazol-3-yl)-2-cycloheptanesulfonyl-2-methyl-propionamide] | agonistic activity | 0.1 | –
23 | CCCS(=O)(=O)C(C)(C)C(=O)Nc1cc(-c2ccccc2)nn1C [2-Methyl-N-(2-methyl-5-phenyl-2H-pyrazol-3-yl)-2-(propane-1-sulfonyl)-propionamide] | agonistic activity | – | –
24 | Cn1nc(C(C)(C)C)cc1NC(=O)C(C)(C)S(=O)(=O)CC1CCCO1 (centres unmarked) [N-(5-tert-Butyl-2-methyl-2H-pyrazol-3-yl)-2-methyl-2-(tetrahydro-furan-2-ylmethanesulfonyl)-propionamide] | agonistic activity | – | –
25 | CC(C)(C)c1cccc(NC(=O)C(C)(C)S(=O)(=O)CC2CCOCC2)c1 [N-(3-tert-Butyl-phenyl)-2-methyl-2-(tetrahydro-pyran-4-ylmethanesulfonyl)-propionamide] | agonistic activity | 14.3 | –
26 | CC(C)(C(=O)Nc1ccc(C(F)(F)F)cn1)S(=O)(=O)CC1CCCCC1 [2-Cyclohexylmethanesulfonyl-2-methyl-N-(5-trifluoromethyl-pyridin-2-yl)-propionamide] | agonistic activity | 15.4 | –
27 | CCCS(=O)(=O)C(C)(C)C(=O)Nc1c(C)c(-c2ccccc2)nn1C [N-(2,4-Dimethyl-5-phenyl-2H-pyrazol-3-yl)-2-methyl-2-(propane-1-sulfonyl)-propionamide] | agonistic activity | – | –
28 | CC(C)S(=O)(=O)C(C)(C)C(=O)Nc1cccc(C(C)(C)C)c1 [N-(3-tert-Butyl-phenyl)-2-methyl-2-(propane-2-sulfonyl)-propionamide] | agonistic activity | – | –

From patent US8829034B2, “Compounds which modulate the CB2 receptor” (Boehringer Ingerlheim International GmbH, priority 2006, dated 2014)
